Test results as given in patent US10167262B2, “Herbicidal substituted 3-arylpyrazoles” (FMC CORPORATION, priority 2014, dated 2019).

How the values were obtained:
Type in all cases: in vivo
[1] = system: cocklebur (common cocklebur, Xanthium strumarium); test: Test E pre-/postemergence greenhouse test, plant response rating 0-100; details: Preemergence, scale 0 to 100
Procedure, shortened: (§1)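 Sow seeds in silt loam and treat preemergence; at the same time, spray postemergence on 1- to 4-leaf plants in peat/vermiculite mix. Use a non-phytotoxic solvent plus surfactant as carrier. Hold 14–21 days in greenhouse, then score visually 0–100 against controls.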

[2] = system: ragweed (common ragweed, Ambrosia elatior); test: as above; details: Preemergence, scale 0 to 100
Procedure, shortened: as §1

[3] = system: surinam grass (Brachiaria decumbens); test: as above; details: Preemergence, scale 0 to 100
Procedure, shortened: as §1

[4] = system: smartweed (ladysthumb smartweed, Polygonum persicaria); test: as above; details: Postemergence, scale 0 to 100
[5] = system: large (Lg) crabgrass (Digitaria sanguinalis); test: as above; details: Preemergence, scale 0 to 100
[6] = system: green foxtail (Setaria viridis); test: as above; details: Preemergence, scale 0 to 100
[7] = system: morningglory (Ipomoea coccinea); test: as above; details: Preemergence, scale 0 to 100
[8] = system: giant foxtail (Setaria faberii); test: as above; details: Preemergence, scale 0 to 100
[9] = system: lambsquarters (Chenopodium album); test: as above; details: Preemergence, scale 0 to 100
Procedure, shortened: as §1

[10] = system: nightshade (eastern black nightshade, Solanum ptycanthum); test: as above; details: Preemergence, scale 0 to 100
Procedure, shortened: as §1

[11] = system: waterhemp_RES1, (ALS & Triazine resistant common waterhemp, Amaranthus rudis); test: Test E postemergence greenhouse test, plant response rating 0-100; details: scale 0 to 100
Procedure, shortened: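 Visual ratings, 0 (no effect) to 100 (complete control), made versus controls 14–21 days after postemergence application in the greenhouse. Plants were at 1- to 4-leaf stage (2–18 cm) in peat moss/vermiculite potting medium.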

O=C(c1ccccc1)c1cn(S(=O)(=O)C(F)(F)F)nc1-c1cc(Cl)cc(Cl)c1 [Compound 2]
65: Plant response rating, Smartweed ([4]; 62 g ai/ha)
95: Plant response rating, Smartweed ([4]; 250 g ai/ha)
75: Plant response rating, Smartweed ([4]; 125 g ai/ha)
0: Cocklebur plant response rating ([1]; 31 g ai/ha) | Cocklebur plant response rating ([1]; 62 g ai/ha) | Cocklebur plant response rating ([1]; 125 g ai/ha) | Cocklebur plant response rating ([1]; 250 g ai/ha) | Ragweed plant response rating ([2]; 31 g ai/ha) | Ragweed plant response rating ([2]; 125 g ai/ha) | Surinam Grass plant response rating ([3]; 31 g ai/ha) | Surinam Grass plant response rating ([3]; 62 g ai/ha) | Surinam Grass plant response rating ([3]; 125 g ai/ha) | Surinam Grass plant response rating ([3]; 250 g ai/ha) | Surinam Grass plant response rating ([3]; 500 g ai/ha) | Plant response rating, Smartweed ([4]; 31 g ai/ha) | Crabgrass, Large plant response rating ([5]; 31 g ai/ha) | Crabgrass, Large plant response rating ([5]; 62 g ai/ha) | Crabgrass, Large plant response rating ([5]; 125 g ai/ha) | Crabgrass, Large plant response rating ([5]; 250 g ai/ha) | Crabgrass, Large plant response rating ([5]; 500 g ai/ha) | Foxtail, Green plant response rating ([6]; 31 g ai/ha) | Foxtail, Green plant response rating ([6]; 62 g ai/ha) | Foxtail, Green plant response rating ([6]; 125 g ai/ha) | Foxtail, Green plant response rating ([6]; 250 g ai/ha) | Foxtail, Green plant response rating ([6]; 500 g ai/ha) | Morningglory plant response rating ([7]; 31 g ai/ha) | Morningglory plant response rating ([7]; 62 g ai/ha) | Morningglory plant response rating ([7]; 125 g ai/ha) | Morningglory plant response rating ([7]; 250 g ai/ha) | Morningglory plant response rating ([7]; 500 g ai/ha) | Foxtail, Giant plant response rating ([8]; 31 g ai/ha) | Foxtail, Giant plant response rating ([8]; 62 g ai/ha) | Foxtail, Giant plant response rating ([8]; 125 g ai/ha) | Foxtail, Giant plant response rating ([8]; 250 g ai/ha) | Foxtail, Giant plant response rating ([8]; 500 g ai/ha)
100: Ragweed plant response rating ([2]; 250 g ai/ha) | Ragweed plant response rating ([2]; 500 g ai/ha)

O=C(c1ccccc1)c1cn(CO)nc1-c1cc(Cl)cc(Cl)c1 [Compound 15, [3-(3,5-dichlorophenyl)-1-(hydroxymethyl)-1H-pyrazol-4-yl]phenylmethanone]
0: Cocklebur plant response rating ([1]; 31 g ai/ha) | Cocklebur plant response rating ([1]; 62 g ai/ha) | Cocklebur plant response rating ([1]; 125 g ai/ha) | Ragweed plant response rating ([2]; 31 g ai/ha) | Ragweed plant response rating ([2]; 62 g ai/ha) | Ragweed plant response rating ([2]; 125 g ai/ha) | Surinam Grass plant response rating ([3]; 31 g ai/ha) | Surinam Grass plant response rating ([3]; 62 g ai/ha) | Surinam Grass plant response rating ([3]; 125 g ai/ha) | Surinam Grass plant response rating ([3]; 250 g ai/ha) | Surinam Grass plant response rating ([3]; 500 g ai/ha) | Plant response rating, Smartweed ([4]; 31 g ai/ha) | Crabgrass, Large plant response rating ([5]; 31 g ai/ha) | Crabgrass, Large plant response rating ([5]; 62 g ai/ha) | Crabgrass, Large plant response rating ([5]; 125 g ai/ha) | Crabgrass, Large plant response rating ([5]; 250 g ai/ha) | Crabgrass, Large plant response rating ([5]; 500 g ai/ha) | Foxtail, Green plant response rating ([6]; 31 g ai/ha) | Foxtail, Green plant response rating ([6]; 62 g ai/ha) | Foxtail, Green plant response rating ([6]; 125 g ai/ha) | Foxtail, Green plant response rating ([6]; 250 g ai/ha) | Foxtail, Green plant response rating ([6]; 500 g ai/ha) | Morningglory plant response rating ([7]; 62 g ai/ha) | Morningglory plant response rating ([7]; 125 g ai/ha) | Morningglory plant response rating ([7]; 250 g ai/ha) | Morningglory plant response rating ([7]; 500 g ai/ha) | Foxtail, Giant plant response rating ([8]; 31 g ai/ha) | Foxtail, Giant plant response rating ([8]; 62 g ai/ha) | Foxtail, Giant plant response rating ([8]; 125 g ai/ha) | Foxtail, Giant plant response rating ([8]; 250 g ai/ha) | Foxtail, Giant plant response rating ([8]; 500 g ai/ha)
100: Ragweed plant response rating ([2]; 500 g ai/ha)
95: Ragweed plant response rating ([2]; 250 g ai/ha)
75: Plant response rating, Smartweed ([4]; 62 g ai/ha)

O=C(c1ccccc1)c1cn(S(=O)(=O)CCl)nc1-c1cc(Cl)cc(Cl)c1 [Compound 1]
0: Cocklebur plant response rating ([1]; 500 g ai/ha) | Surinam Grass plant response rating ([3]; 31 g ai/ha) | Surinam Grass plant response rating ([3]; 62 g ai/ha) | Surinam Grass plant response rating ([3]; 125 g ai/ha) | Surinam Grass plant response rating ([3]; 250 g ai/ha) | Surinam Grass plant response rating ([3]; 500 g ai/ha) | Plant response rating, Smartweed ([4]; 31 g ai/ha) | Crabgrass, Large plant response rating ([5]; 31 g ai/ha) | Crabgrass, Large plant response rating ([5]; 62 g ai/ha) | Crabgrass, Large plant response rating ([5]; 125 g ai/ha) | Crabgrass, Large plant response rating ([5]; 250 g ai/ha) | Crabgrass, Large plant response rating ([5]; 500 g ai/ha) | Foxtail, Green plant response rating ([6]; 31 g ai/ha) | Foxtail, Green plant response rating ([6]; 62 g ai/ha) | Foxtail, Green plant response rating ([6]; 125 g ai/ha) | Foxtail, Green plant response rating ([6]; 250 g ai/ha) | Morningglory plant response rating ([7]; 31 g ai/ha) | Morningglory plant response rating ([7]; 62 g ai/ha) | Morningglory plant response rating ([7]; 125 g ai/ha) | Morningglory plant response rating ([7]; 250 g ai/ha) | Morningglory plant response rating ([7]; 500 g ai/ha) | Foxtail, Giant plant response rating ([8]; 31 g ai/ha) | Foxtail, Giant plant response rating ([8]; 62 g ai/ha) | Foxtail, Giant plant response rating ([8]; 125 g ai/ha) | Foxtail, Giant plant response rating ([8]; 250 g ai/ha) | Foxtail, Giant plant response rating ([8]; 500 g ai/ha)
50: Ragweed plant response rating ([2]; 31 g ai/ha) | Plant response rating, Smartweed ([4]; 125 g ai/ha)
15: Foxtail, Green plant response rating ([6]; 500 g ai/ha)
75: Ragweed plant response rating ([2]; 250 g ai/ha) | Ragweed plant response rating ([2]; 500 g ai/ha) | Plant response rating, Smartweed ([4]; 250 g ai/ha)
35: Plant response rating, Smartweed ([4]; 62 g ai/ha)

O=Cn1cc(C(=O)c2ccccc2)c(-c2cc(Cl)cc(Cl)c2)n1 [Compound 28]
65: Ragweed plant response rating ([2]; 250 g ai/ha)
85: Plant response rating, Waterhemp_RES1 ([11]; 31 g ai/ha) | Plant response rating, Waterhemp_RES1 ([11]; 62 g ai/ha)
90: Plant response rating, Waterhemp_RES1 ([11]; 125 g ai/ha) | Plant response rating, Waterhemp_RES1 ([11]; 500 g ai/ha)
0: Ragweed plant response rating ([2]; 31 g ai/ha) | Ragweed plant response rating ([2]; 62 g ai/ha) | Surinam Grass plant response rating ([3]; 31 g ai/ha) | Surinam Grass plant response rating ([3]; 62 g ai/ha) | Surinam Grass plant response rating ([3]; 125 g ai/ha) | Surinam Grass plant response rating ([3]; 250 g ai/ha) | Surinam Grass plant response rating ([3]; 500 g ai/ha) | Lambsquarters plant response rating ([9]; 31 g ai/ha) | Nightshade plant response rating ([10]; 31 g ai/ha) | Nightshade plant response rating ([10]; 62 g ai/ha) | Nightshade plant response rating ([10]; 125 g ai/ha) | Nightshade plant response rating ([10]; 250 g ai/ha) | Nightshade plant response rating ([10]; 500 g ai/ha) | Crabgrass, Large plant response rating ([5]; 31 g ai/ha) | Crabgrass, Large plant response rating ([5]; 62 g ai/ha) | Crabgrass, Large plant response rating ([5]; 125 g ai/ha) | Crabgrass, Large plant response rating ([5]; 250 g ai/ha) | Crabgrass, Large plant response rating ([5]; 500 g ai/ha) | Foxtail, Green plant response rating ([6]; 31 g ai/ha) | Foxtail, Green plant response rating ([6]; 62 g ai/ha) | Foxtail, Green plant response rating ([6]; 125 g ai/ha) | Foxtail, Green plant response rating ([6]; 250 g ai/ha) | Foxtail, Green plant response rating ([6]; 500 g ai/ha) | Morningglory plant response rating ([7]; 31 g ai/ha) | Morningglory plant response rating ([7]; 62 g ai/ha) | Morningglory plant response rating ([7]; 125 g ai/ha) | Morningglory plant response rating ([7]; 250 g ai/ha) | Morningglory plant response rating ([7]; 500 g ai/ha) | Foxtail, Giant plant response rating ([8]; 31 g ai/ha) | Foxtail, Giant plant response rating ([8]; 62 g ai/ha) | Foxtail, Giant plant response rating ([8]; 250 g ai/ha) | Foxtail, Giant plant response rating ([8]; 500 g ai/ha)
30: Ragweed plant response rating ([2]; 125 g ai/ha)
100: Lambsquarters plant response rating ([9]; 125 g ai/ha) | Lambsquarters plant response rating ([9]; 250 g ai/ha) | Lambsquarters plant response rating ([9]; 500 g ai/ha)
20: Foxtail, Giant plant response rating ([8]; 125 g ai/ha)
95: Lambsquarters plant response rating ([9]; 62 g ai/ha) | Plant response rating, Waterhemp_RES1 ([11]; 250 g ai/ha)
70: Ragweed plant response rating ([2]; 500 g ai/ha)
